20 compounds from patent publication US20250195530A1, “POLQ INHIBITORS” (ASTRAZENECA AB, priority 2022, published 2025) can be followed below.

Structures are written as SMILES. Read-outs that look alike come from different tables or passages of the source.

In test [1] the test system is DLD-1 cells. Nature of the test: Inhibition of proliferation, DLD-1 BRCA2 wt control (Cell Titre Glo 3D). Type of test: cell-based. Conditions: Homo sapiens. A digest of the protocol:
(§1)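 DLD-1 BRCA2−/− (3,000 cells/mL) and parental DLD-1 (1,500 cells/mL) cells in phenol red-free RPMI 1640 with 10% FBS were exposed to a 10-point, three-fold compound series from 10 μM to 0.51 nM at 37 °C, 5% CO2. Medium and compound were replenished on day 6. CellTiter-Glo 3D luminescence was read on day 7 (DLD-1) or day 12 (BRCA2−/−), and IC50 was taken as 50% reduction of maximum signal.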

For test [2], the system named is DLD-1 BRCA2−/− cells. Nature of the test: Homologous recombination synthetic lethal inhibition of proliferation, DLD-1 BRCA2-/- (Cell Titre Glo 3D). In kind it is cell-based. Conditions: Homo sapiens. The method in brief:
as §1

The mark [3] stands for this setting: DLD-1, 168 h, DLD-1 BRCA2 wt cells, 7 days, read-out: POLQ PD Prolif Lumin DLD1 mean pIC50 (converted).
The mark [4] stands for this setting: DLD-1, 288 h, DLD-1 BRCA2−/− cells, 12 days, read-out: POLQ PD Prolif Lumin BRCA2 −/− mean pIC50 (converted).
Where [5] appears, read: DLD-1, DLD1 BRCA2 wt, mean, read-out: POLQ PD Prolif Lumin DLD1 mean pIC50 (converted).
[6] abbreviates: DLD-1, DLD-1 BRCA2 −/−, mean, read-out: POLQ PD Prolif Lumin BRCA2 −/− mean pIC50 (converted).
[7] abbreviates: DLD-1, 168 h, DLD-1 (BRCA2 wt control), 7 days, Cell Titre Glo 3D, read-out: POLQ PD Prolif Lumin DLD1 Mean pIC50 (converted).
[8] abbreviates: DLD-1, 288 h, DLD-1 BRCA2−/−, 12 days, Cell Titre Glo 3D, read-out: POLQ PD Prolif Lumin BRCA2 −/− Mean pIC50 (converted).
Setting [9] is: DLD-1, second proliferation column (c6), DLD-1 BRCA2 wt control, read-out: POLQ PD Prolif Lumin (converted).
Setting [10] is: DLD-1, first proliferation column (c5), DLD-1 BRCA2-/-, read-out: POLQ PD Prolif Lumin (converted).

As for `CC1(Oc2ncnc3c2nc(-c2ccc(O[C@H]4CCNC4)cc2Cl)n3Cc2ccccc2)CC1` [Example D17, (S)-9-benzyl-8-(2-chloro-4-(pyrrolidin-3-yloxy)phenyl)-6-(1-methylcyclopropoxy)-9H-purine], the IC50 in test [1] (setting [3]) is 3.16 µM; in test [2] (setting [4]), 0.1 µM.
For `COc1ncccc1-c1nc2c(OC3(C)CC3)ncnc2n1Cc1ccccc1` [Example N9, 9-benzyl-8-(2-methoxypyridin-3-yl)-6-(1-methylcyclopropoxy)-9H-purine] the same measures were above 10 µM and 1.26 µM.
As for `COc1ccc(Cl)cc1Cn1c(-c2cccc(CCC(=O)O)c2Cl)nc2c(OC3(C)CC3)ncnc21` [Example U64, 3-(2-chloro-3-(9-(5-chloro-2-methoxybenzyl)-6-(1-methylcyclopropoxy)-9H-purin-8-yl)phenyl)propanoic acid], the IC50 in test [1] (setting [5]) is above 10 µM; in test [2] (setting [6]), 0.1 µM.
`Cc1cnc(Cn2c(-c3ccc(OC4CCCN(C)CC4)cc3Cl)nc3c(OC4(C)CC4)ncnc32)s1` (single isomer, unassigned) [Example T389, 2-((8-(2-chloro-4-((1-methylazepan-4-yl)oxy)phenyl)-6-(1-methylcyclopropoxy)-9H-purin-9-yl)methyl)-5-methylthiazole]: the IC50 is above 10 µM in test [1] (DLD-1, second proliferation column (c6), taken as DLD-1 BRCA2 wt, read-out: POLQ PD Prolif Lumin (converted)) and 0.316 µM in test [2] (DLD-1, first proliferation column (c5), taken as DLD-1 BRCA2-/-, read-out: POLQ PD Prolif Lumin (converted)).
`C[C@@H](CCOc1ccc(-c2nc3c(OC4(C)CC4)ncnc3n2Cc2cccc(Cl)c2)c(Cl)c1)C(=O)O` (single isomer, unassigned; isomer 2) [Example 35, 4-(3-Chloro-4-(9-(3-chlorobenzyl)-6-(1-methylcyclopropoxy)-9H-purin-8-yl)phenoxy)-2-methylbutanoic acid (Isomer 2)]: the IC50 was above 10 µM in test [1] (setting [7]) and 0.126 µM in test [2] (setting [8]).
As to `CC1(Oc2ncnc3c2nc(-c2ccc(OCCN4CC5(CC(O)C5)C4)cc2Cl)n3Cc2ccccc2)CC1` [Example H16, 2-(2-(4-(9-benzyl-6-(1-methylcyclopropoxy)-9H-purin-8-yl)-3-chlorophenoxy)ethyl)-2-azaspiro[3.3]heptan-6-ol], the IC50 in test [1] (setting [3]) was 5.01 µM; in test [2] (setting [4]) it was 0.0501 µM.
On to `C[C@@H](CCOc1ccc(-c2nc3c(OC4(C)CC4)ncnc3n2Cc2cccc(C#N)c2)c(Cl)c1)C(=O)O` [Example U8, (S)-4-(3-chloro-4-(9-(3-cyanobenzyl)-6-(1-methylcyclopropoxy)-9H-purin-8-yl)phenoxy)-2-methylbutanoic acid], for which the IC50 is above 6.31 µM in test [1] (setting [5]) and 0.398 µM in test [2] (setting [6]).
On to `Cc1ccnc(Cn2c(-c3ccc(C(=O)N(C)C)cc3Cl)nc3c(OC4(C)CC4)ncnc32)c1` [Example T112, 3-chloro-N,N-dimethyl-4-(6-(1-methylcyclopropoxy)-9-((4-methylpyridin-2-yl)methyl)-9H-purin-8-yl)benzamide], for which the IC50 was above 10 µM in test [1] (setting [9]) and 1.58 µM in test [2] (setting [10]).
Turning to `CN1CCN(CCOc2cc(Cl)c(-c3nc4c(OC5(C)CC5)ncnc4n3Cc3ccccc3)cn2)CC1` [Example 20, 9-Benzyl-8-(4-chloro-6-(2-(4-methylpiperazin-1-yl)ethoxy)pyridin-3-yl)-6-(1-methylcyclopropoxy)-9H-purine], the IC50 in test [1] (setting [3]) was 7.94 µM; in test [2] (setting [4]), 0.398 µM.
For the compound `Cc1cnc(Cn2c(-c3ccc(OCCN(C)C)cc3Cl)nc3c(OC4(C)CC4)ncnc32)s1` [Example T72, 2-(3-chloro-4-(6-(1-methylcyclopropoxy)-9-((5-methylthiazol-2-yl)methyl)-9H-purin-8-yl)phenoxy)-N,N-dimethylethan-1-amine], the IC50 in test [1] (DLD-1, DLD1 BRCA2 wt cells, mean, read-out: POLQ PD Prolif Lumin DLD1 mean PIC50 (converted)) is above 10 µM; in test [2] (DLD-1, DLD-1 BRCA2 −/− cells, mean, read-out: POLQ PD Prolif Lumin BRCA2 −/− mean pIC50 (converted)), 0.2 µM.
As for `CC1(Oc2ncnc3c2nc(-c2ccc(OCCN4CCNCC4)cc2Cl)n3Cc2ncccc2Cl)CC1` [Example K5, 8-(2-chloro-4-(2-(piperazin-1-yl)ethoxy)phenyl)-9-((3-chloropyridin-2-yl)methyl)-6-(1-methylcyclopropoxy)-9H-purine], the IC50 was above 10 µM in test [1] (setting [3]) and 2.51 µM in test [2] (setting [4]).
For `C#Cc1cc(OCCN2CCN(C)CC2)ccc1-c1nc2c(OC3(C)CC3)ncnc2n1Cc1ccccc1` [Example H9, 9-benzyl-8-(2-ethynyl-4-(2-(4-methylpiperazin-1-yl)ethoxy)phenyl)-6-(1-methylcyclopropoxy)-9H-purine] the same measures were 3.98 µM and 0.501 µM.
Consider `COCc1cc(OCCN2CCN(C)CC2)ccc1-c1nc2c(OC3(C)CC3)ncnc2n1Cc1ccccc1` [Example T612, 9-benzyl-8-(2-(methoxymethyl)-4-(2-(4-methylpiperazin-1-yl)ethoxy)phenyl)-6-(1-methylcyclopropoxy)-9H-purine], for which the IC50 in test [1] (DLD-1, second proliferation column, DLD-1 BRCA2 wt control, read-out: POLQ PD Prolif Lumin (converted)) is above 10 µM; in test [2] (DLD-1, first proliferation column, DLD-1 BRCA2-/-, read-out: POLQ PD Prolif Lumin (converted)), 1 µM.
As for `Cc1ccnc(Cn2c(-c3cccc(OCCN(C)C)c3Cl)nc3c(OC4(C)CC4)ncnc32)c1` [Example T237, 2-(2-chloro-3-(6-(1-methylcyclopropoxy)-9-((4-methylpyridin-2-yl)methyl)-9H-purin-8-yl)phenoxy)-N,N-dimethylethan-1-amine], the IC50 in test [1] (DLD-1, DLD-1 BRCA2 wt control proliferation, column head only partly shown, read-out: POLQ PD Prolif Lumin (converted)) is above 10 µM; in test [2] (DLD-1, DLD-1 BRCA2-/- proliferation, column head only partly shown, read-out: POLQ PD Prolif Lumin (converted)), 0.0501 µM.
With `CC1(Oc2ncnc3c2nc(-c2ccc(OCCN4C[C@@H]5C[C@H]4CN5)cc2Cl)n3Cc2ccccc2)CC1` [Example R19, 8-(4-(2-((1S,4S)-2,5-diazabicyclo[2.2.1]heptan-2-yl)ethoxy)-2-chlorophenyl)-9-benzyl-6-(1-methylcyclopropoxy)-9H-purine], the results for the IC50 in test [1] (setting [3]) and in test [2] (setting [4]) were 3.98 µM and 0.2 µM, respectively.
On to `COc1ccc(Cl)cc1Cn1c(-c2ccc(OCC[C@H](C)C(=O)O)cc2Cl)nc2c(OC3(C)CC3)ncnc21` [Example 48, (S)-4-(3-chloro-4-(9-(5-chloro-2-methoxybenzyl)-6-(1-methylcyclopropoxy)-9H-purin-8-yl)phenoxy)-2-methylbutanoic acid], for which the values for the IC50 in test [1] (setting [7]) and in test [2] (setting [8]) were above 10 µM and 0.0398 µM, respectively.
For the compound `CC1(Oc2ncnc3c2nc(-c2ccc(OCCN4CCNCC4)cc2Cl)n3Cc2cc(C(F)F)ccn2)CC1` [Example T488, 8-(2-chloro-4-(2-(piperazin-1-yl)ethoxy)phenyl)-9-((4-(difluoromethyl)pyridin-2-yl)methyl)-6-(1-methylcyclopropoxy)-9H-purine], the IC50 in test [1] (setting [9]) was above 10 µM; in test [2] (setting [10]), 1 µM.
As for `Cc1cnc(Cn2c(-c3ccc(OCCN4CCNCC4)cc3Cl)nc3c(OC4(C)CC4)ncnc32)cc1Cl` [Example T526, 8-(2-chloro-4-(2-(piperazin-1-yl)ethoxy)phenyl)-9-((4-chloro-5-methylpyridin-2-yl)methyl)-6-(1-methylcyclopropoxy)-9H-purine], the IC50 in test [1] (setting [9]) is above 10 µM; in test [2] (setting [10]), 0.631 µM.
For the compound `CC1(Oc2ncnc3c2nc(-c2cccc(OCCOCC(=O)O)c2Cl)n3Cc2cc(Cl)ccc2F)CC1` [Example U22, 2-(2-(2-chloro-3-(9-(5-chloro-2-fluorobenzyl)-6-(1-methylcyclopropoxy)-9H-purin-8-yl)phenoxy)ethoxy)acetic acid], the IC50 was above 10 µM in test [1] (setting [5]) and 0.0501 µM in test [2] (setting [6]).
In the case of `Cc1ccnc(Cn2c(-c3ccc(OCCS(C)(=O)=O)cc3Cl)nc3c(OC4(C)CC4)ncnc32)c1` [Example T129, 8-(2-chloro-4-(2-(methylsulfonyl)ethoxy)phenyl)-6-(1-methylcyclopropoxy)-9-((4-methylpyridin-2-yl)methyl)-9H-purine], the IC50 is above 10 µM in test [1] (setting [9]) and 0.158 µM in test [2] (setting [10]).
